The values that follow come from patent publication US4435410A, “3-[2-(3-Alkyl and alkenyl-4-piperidyl)-ethyl]-indoles for inhibiting serotonin uptake and for releasing serotonin” (Pharmindustrie, priority 1981, dated 1984).

Molecules are shown by their SMILES.

In series [1] the test system is human blood platelets (release of serotonin). As to the kind of experiment: Release of serotonin from human blood platelets. Format: cell-based. The note with it: Platelet, product concentration 5 × 10^-5 moles per liter, compared with controls, read-out: Percent of increased serotonin release. As for the experimental part: The ability of products to inhibit the uptake of serotonin or to cause its release has been shown on human blood platelets according to J. L. David and Coll. "Platelets Function and Thrombosis, a Review of Methods", p.
The action of the products on the release of serotonin is tested at a concentration of 5×10^-5 moles per liter.

Series [2] concerns human blood platelets (uptake of serotonin). As to the kind of experiment: Inhibition of the uptake of serotonin by human blood platelets. Type of series: cell-based. The following applies: Platelet, read-out: Inhibition of serotonin uptake I50. The source says:
It is known that the uptake of serotonin by the blood platelets constitutes a good model for the uptake of this amine by the neurons (cf. J. Tuomisto, J. Pharm. Pharmac., 26. 92 (1974). When it is applied to the study of medicaments, a method which makes use of the blood platelets is very attractive from the point of view of allowing human cells to be used, thereby giving it good prospects.
The ability of products to inhibit the uptake of serotonin or to cause its release has been shown on human blood platelets according to J. L. David and Coll. "Platelets Function and Thrombosis, a Review of Methods", p. 335 (Plenum Press, London, 1972).
(1) Inhibition of the uptake of serotonin
The results are expressed by a 50% inhibiting dose or I50 which represents the dose of the product in micromoles per liter, reducing the uptake of serotonin by 50%.

A short description of series [3]: Acute toxicity in male mice by oral administration. The following applies: mouse, in vivo; male mice CD1, oral, after 3 days' observation, cumulative method. As for the experimental part: The acute toxicity of the products was determined in male mice CD1 (Charles RIVER) by oral administrations. The LD50 which was calculated after 3 days' observation, by the cumulative method of J. J. Reed and Coll. (Am. J. Hyg. 27, 493-1938) is 225 mg/kg for the compound of Example 1, and about 200 mg/kg for the compound of Example 4.

The LD50 is the dose at which mortality reaches 50%. Read a low LD50 as greater toxicity.

As for `CC[C@H]1CNCC[C@H]1CCc1c[nH]c2ccccc12` [Example 2, 3-{2-[3(R)ETHYL-4(R)PIPERIDYL]-ETHYL}-INDOLE], in series [1], the activation at 50 µM came to 75%. Moreover, in series [2], the IC50 was found to be 60 nM.
On to `C=C[C@H]1CNCC[C@H]1CCc1c[nH]c2ccccc12` [Example 1, 3-[2-(3(R)VINYL-4(R)PIPERIDYL)-ETHYL]-INDOLE], for which the LD50 at 72 h in series [3] came to 225 mg/kg. The activation at 50 µM in series [1] came out at 84%. In series [2], the IC50 stood at 8 nM.
Turning to `C=C[C@@H]1CNCC[C@H]1CCc1c[nH]c2ccccc12` [Example 4, 3-{2-[3(S)VINYL-4(R)PIPERIDYL]-ETHYL}-INDOLE], in series [3], the LD50 at 72 h is approximately 200 mg/kg. The activation at 50 µM in series [1] was determined as 91%. The IC50 in series [2] turned out to be 35 nM.
